Earlier results on four molecules are cited in patent US20230243817A1, “USES, METHODS AND PRODUCTS RELATING TO OLIGOMERIC LIPOPOLYSACCHARIDE BINDING PROTEINS” (priority 2020, published 2023).

The conditions of the series: for Kd: read-out: KD for LPS.

For orientation: Kd means the equilibrium constant for the complex coming apart. With TLR4: human LPS immune receptor, the Kd is 141 µM.
With polymyxin B [reference compound], the Kd was 48 µM. The Reported binding affinity entry (depending on the bacterial strain) is on record as “micromolar range”.
Regarding MD-2: human LPS immune receptor, the Kd is 2.33 µM.

B1: LPS binding protein: human LPS immune receptor (protein, UniProt P18428 26-481, looked up)
Lipopolysaccharide-binding …: ANPGLVARITDKGLQYAAQEGLLALQSELLRITLPDFTGDLRIPHVGRGRYEFHSLNIHSCELLHSALRPVPGQGLSLSISDSSIRVQGRWKVRKSFFKLQGSFDVSVKGISISVNLLLGSESSGRPTVTASSCSSDIADVEVDMSGDLGWLLNLFHNQIESKFQKVLESRICEMIQKSVSSDLQPYLQTLPVTTEIDSFADIDYSLVEAPRATAQMLEVMFKGEIFHRNHRSPVTLLAAVMSLPEEHNKMVYFAISDYVFNTASLVYHEEGYLNFSITDDMIPPDSNIRLTTKSFRPFVPRLARLYPNMNLELQGSVPSAPLLNFSPGNLSVDPYMEIDAFVLLPSSSKEPVFRLSVATNVSATLTFNTSKITGFLKPGKVKVELKESKVGLFNAELLEALLNYYILNTFYPKFNDKLAEGFPLPLLKRVQLYDLGLQIHKDFLFLGANVQYMRV
On to B1, for which the Kd is 0.0035 µM.
